Experimental findings from patent US12516039B2, “N-linked isoquinoline amides as LRRK2 inhibitors, pharmaceutical compositions, and uses thereof” (Merck Sharp & Dohme LLC, priority 2020, dated 2026) are described below.

This assay concerns the target T1, GST-tagged truncated human mutant G2019S LRRK2 (Homo sapiens, UniProt Q5S007, G2019S).
T1 construct: GST-tagged truncated human mutant G2019S LRRK2; purchased Life Technologies Corporation (Carlsbad, CA)
The experiment in a line: LRRK2 G2019S Km ATP LanthaScreen assay. Type of assay: biochemical. The following applies: 134 μM ATP (Km ATP), LRRKtide substrate, mean of several tests, read-out: LRRK2 pIC50 (converted). The method, boiled down:
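IC50 values are means of repeat runs, fitted with a 4-parameter logistic to the 520/495 nm TR-FRET ratio from a Tb-labeled anti-phospho-LRRKtide antibody added with EDTA. Reactions ran 90 min at room temperature at Km ATP (134 μM) with fluorescein-LRRKtide, after 15-min compound preincubation with truncated GST-tagged G2019S LRRK2.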
(TR-FRET usually uses a lanthanide donor and a delayed reading to cut background.)

T1 sequence (Q5S007 970-2527 G2019S limits assumed): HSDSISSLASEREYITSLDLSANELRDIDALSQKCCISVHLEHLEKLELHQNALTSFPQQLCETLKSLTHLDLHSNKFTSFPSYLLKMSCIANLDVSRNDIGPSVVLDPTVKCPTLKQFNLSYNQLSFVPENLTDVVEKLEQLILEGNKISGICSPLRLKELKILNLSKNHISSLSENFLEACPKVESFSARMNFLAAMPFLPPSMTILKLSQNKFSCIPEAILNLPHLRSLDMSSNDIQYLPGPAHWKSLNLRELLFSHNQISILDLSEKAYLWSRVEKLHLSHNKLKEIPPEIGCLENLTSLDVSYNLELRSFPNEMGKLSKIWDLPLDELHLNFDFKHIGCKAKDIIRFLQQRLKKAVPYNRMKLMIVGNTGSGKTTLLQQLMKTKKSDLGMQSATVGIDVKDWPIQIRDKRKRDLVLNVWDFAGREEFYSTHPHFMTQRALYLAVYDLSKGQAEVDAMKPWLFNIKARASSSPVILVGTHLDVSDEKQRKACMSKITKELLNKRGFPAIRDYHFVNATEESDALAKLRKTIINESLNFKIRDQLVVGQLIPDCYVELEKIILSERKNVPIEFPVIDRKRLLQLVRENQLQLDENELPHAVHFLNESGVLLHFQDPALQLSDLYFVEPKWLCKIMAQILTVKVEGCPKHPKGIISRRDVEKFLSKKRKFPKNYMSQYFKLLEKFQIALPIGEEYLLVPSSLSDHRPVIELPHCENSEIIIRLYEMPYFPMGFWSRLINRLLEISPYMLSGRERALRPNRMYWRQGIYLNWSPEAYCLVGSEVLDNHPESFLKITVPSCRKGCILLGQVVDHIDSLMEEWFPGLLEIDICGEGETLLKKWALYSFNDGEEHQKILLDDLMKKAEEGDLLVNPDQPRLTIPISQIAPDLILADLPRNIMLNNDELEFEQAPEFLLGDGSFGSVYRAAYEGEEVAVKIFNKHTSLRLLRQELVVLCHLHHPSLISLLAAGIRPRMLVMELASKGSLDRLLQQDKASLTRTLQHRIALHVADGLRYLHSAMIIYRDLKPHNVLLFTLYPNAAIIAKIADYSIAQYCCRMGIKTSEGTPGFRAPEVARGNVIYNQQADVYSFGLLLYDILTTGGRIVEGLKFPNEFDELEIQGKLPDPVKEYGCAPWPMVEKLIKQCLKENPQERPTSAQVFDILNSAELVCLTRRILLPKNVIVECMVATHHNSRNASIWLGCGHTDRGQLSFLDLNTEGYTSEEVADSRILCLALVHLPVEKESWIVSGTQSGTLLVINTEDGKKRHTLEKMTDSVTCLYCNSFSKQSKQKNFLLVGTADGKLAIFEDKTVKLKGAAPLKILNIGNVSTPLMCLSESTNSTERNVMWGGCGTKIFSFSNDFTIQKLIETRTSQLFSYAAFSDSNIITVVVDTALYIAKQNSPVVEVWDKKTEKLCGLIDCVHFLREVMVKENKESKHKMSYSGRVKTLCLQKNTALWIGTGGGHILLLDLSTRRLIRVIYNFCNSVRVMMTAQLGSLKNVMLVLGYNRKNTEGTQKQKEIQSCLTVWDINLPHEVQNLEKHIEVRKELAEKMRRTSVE

For `CC1(N2CCN(c3cc4cc(NC(=O)C5CC5)ncc4cc3F)CC2)COCC1O` (single isomer, unassigned) [Ex-1.6, (3R,4R or 3S,4S)-N-(7-fluoro-6-(4-(4-hydroxy-3-methyltetrahydrofuran-3-yl)piperazin-1-yl)isoquinolin-3-yl)cyclopropanecarboxamide], the IC50 is 912 nM.

For `Cn1ncc(C2CC2C(=O)Nc2cc3cc(N4CCN(C5(C)CCOC5)CC4)c(Cl)cc3cn2)c1C(F)(F)F` (single isomer, unassigned) [Ex-10.26, (1R,2R or 1S,2S)-N-[7-chloro-6-[4-((R or S)-3-methyltetrahydrofuran-3-yl)piperazin-4-ium-1-yl]-3-isoquinolyl]-2-[1-methyl-5-(trifluoromethyl)pyrazol-4-yl]cyclopropanecarboxamide], the IC50 is 525 nM.

With `CC1(N2CCN(c3cc4cc(NC(=O)C5CCC5c5ccccn5)ncc4cc3Cl)CC2)COCC1O` (single isomer, unassigned) [Ex-11.6, (1R,2R or 1S,2S)-N-(7-chloro-6-(4-((3R,4R or 3S,4S)-4-hydroxy-3-methyltetrahydrofuran-3-yl)piperazin-1-yl)isoquinolin-3-yl)-2-(pyridin-2-yl)cyclobutane-1-carboxamide], the IC50 is 0.132 nM.

Consider `CC1(N2CCN(c3cc4cc(NC(=O)C5CC56CC6(F)F)ncc4cc3Cl)CC2)COCC1O` (single isomer, unassigned) [Ex-3.2], for which the IC50 is 1.07 nM.

On to `O=C(Nc1cc2cc(N3CCN(C4COCC4O)CC3)c(Cl)cc2cn1)C1CC12CCOCC2` (single isomer, unassigned) [Ex-2.8, (R or S)-N-(7-chloro-6-(4-((3R,4R or 3S,4S)-4-hydroxytetrahydrofuran-3-yl)piperazin-1-yl)isoquinolin-3-yl)-6-oxaspiro[2.5]octane-1-carboxamide], for which the IC50 is 24 nM.

In the case of `CC1(N2CCN(c3cc4cc(NC(=O)C5CC56CCCOC6)ncc4cc3Cl)CC2)COCC1O` (single isomer, unassigned) [Ex-1.16, (1R,3S, or 1R,3R, or 1S,3S, or 1S,3R)-N-(7-chloro-6-(4-((3R,4R or 3S,4S)-4-hydroxy-3-methyltetrahydrofuran-3-yl)piperazin-1-yl)isoquinolin-3-yl)-5-oxaspiro[2.5]octane-1-carboxamide], the IC50 was 112 nM.

`CC1(C)CC(C(=O)Nc2cc3cc(N4CCN(C5(C)COCC5O)CC4)c(Cl)cc3cn2)CO1` (single isomer, unassigned) [Ex-1.21, (R or S)-N-(7-chloro-6-(4-((3R,4R or 3S,4S)-4-hydroxy-3-methyltetrahydrofuran-3-yl)piperazin-1-yl)isoquinolin-3-yl)-5,5-dimethyltetrahydrofuran-3-carboxamide]: the IC50 was 1.74 nM.
